Reference: ChEMBL document CHEMBL3596169, “Pyridine hydroxamic acids are specific anti-HCV agents affecting HDAC6” (Bioorg Med Chem Lett, 2015)
Calls of active or inactive are those of the source. The calls are words filed in the database; no cut-off is given here.

How the values were obtained:
[1] = biological target: T1, Protein deacetylase HDAC6 (Homo sapiens) (UniProt Q9UBN7); experiment: Inhibition of HDAC6 in human Huh-luc/neo7 cells assessed as alpha-tubulin acetylation at 20 to 100 uM by Western blotting analysis; assay type: cell-based
T1 sequence (whole entry): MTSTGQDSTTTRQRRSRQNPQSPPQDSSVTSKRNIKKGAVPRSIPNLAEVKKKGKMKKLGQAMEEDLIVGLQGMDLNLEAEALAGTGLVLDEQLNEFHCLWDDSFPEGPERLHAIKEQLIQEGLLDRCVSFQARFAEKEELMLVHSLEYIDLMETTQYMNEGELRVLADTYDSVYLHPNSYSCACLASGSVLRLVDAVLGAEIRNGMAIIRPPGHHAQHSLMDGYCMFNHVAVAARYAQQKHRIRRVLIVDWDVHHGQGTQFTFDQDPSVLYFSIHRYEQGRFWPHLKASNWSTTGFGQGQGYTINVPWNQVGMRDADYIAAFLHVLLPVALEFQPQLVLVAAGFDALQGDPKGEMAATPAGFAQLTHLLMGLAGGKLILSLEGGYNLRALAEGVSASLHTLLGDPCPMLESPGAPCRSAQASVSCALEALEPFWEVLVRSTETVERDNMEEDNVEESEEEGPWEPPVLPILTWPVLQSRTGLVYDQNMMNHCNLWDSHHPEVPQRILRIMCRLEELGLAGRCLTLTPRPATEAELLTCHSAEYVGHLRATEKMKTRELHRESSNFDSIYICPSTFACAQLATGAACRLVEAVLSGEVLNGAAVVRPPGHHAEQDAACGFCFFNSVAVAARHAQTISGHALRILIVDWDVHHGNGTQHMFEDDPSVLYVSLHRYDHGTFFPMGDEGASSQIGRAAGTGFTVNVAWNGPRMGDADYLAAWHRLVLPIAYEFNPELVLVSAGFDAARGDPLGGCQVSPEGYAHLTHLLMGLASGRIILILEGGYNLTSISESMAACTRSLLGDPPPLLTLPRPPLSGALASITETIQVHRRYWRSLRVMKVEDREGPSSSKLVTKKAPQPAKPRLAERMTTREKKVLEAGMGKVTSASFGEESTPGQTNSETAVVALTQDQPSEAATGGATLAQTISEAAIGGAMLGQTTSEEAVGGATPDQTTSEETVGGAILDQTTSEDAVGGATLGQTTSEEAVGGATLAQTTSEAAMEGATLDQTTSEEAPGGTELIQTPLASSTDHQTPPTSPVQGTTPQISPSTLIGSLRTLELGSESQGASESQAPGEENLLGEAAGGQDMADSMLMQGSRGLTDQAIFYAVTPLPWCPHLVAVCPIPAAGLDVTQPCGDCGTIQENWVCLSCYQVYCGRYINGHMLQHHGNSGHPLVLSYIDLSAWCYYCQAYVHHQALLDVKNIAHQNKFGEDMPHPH

[2] = test system: Hepatitis C virus; experiment: Antiviral activity against HCV infected in human Huh-luc/neo7 cells after 72 hrs by luciferase assay; assay type: functional, organism-based, Hepacivirus hominis
[3] = Cytotoxicity against human HuH7 cells transfected with luc/neo plasmid assessed as cell viability after 72 hrs by MTT method; assay type: cell-based, Huh-7
[4] = biological target: T1, Protein deacetylase HDAC6 (Homo sapiens); experiment: Inhibition of HDAC6 in human Huh-luc/neo7 cells assessed as alpha-tubulin acetylation at 5 to 60 uM by Western blotting analysis; assay type: cell-based
[5] = Selectivity index, ratio of CC50 for human HuH7 cells transfected with luc/neo plasmid to EC50 for HCV infected in human Huh-luc/neo7 cells; parameters: species or system Huh-7
[6] = biological target: T1, Protein deacetylase HDAC6 (Homo sapiens); experiment: Inhibition of HDAC6 in human Huh-luc/neo7 cells assessed as alpha-tubulin acetylation at 3 to 24 uM by Western blotting analysis; assay type: cell-based

| HDAC6 inhibition (active/not active) [1] | EC50 [2] [µM] | inhibition [4] | inhibition [6] | Compound | CC50 at 72 h [3] [µM] | Ratio CC50/EC50 [5] |
| --- | --- | --- | --- | --- | --- | --- |
| Active | – | – | – | O=C(NO)c1ccccc1 | – | – |
| – | > 1000 | – | – | CONC(=O)c1ccccn1 | > 1000 | – |
| – | – | Active | – | Cc1ccc(C(=O)NO)cc1 | – | – |
| inactive | 17 | – | – | O=C(NO)c1cc[n+]([O-])cc1 | > 1000 | >59 |
| – | > 1000 | – | – | CN(O)C(=O)c1cccc[n+]1[O-] | > 1000 | – |
| – | 12 | – | – | Cn1cccc(C(=O)NO)c1=O | > 1000 | >83 |
| – | 8 | – | – | O=C(NO)c1ncccc1Cl | 800 | 100 |
| Active | 25 | – | – | O=C(NO)c1cccnc1 [NICOXAMAT] | 450 | 18 |
| Active | 17 | – | – | O=C(NO)c1ccncc1 | 210 | 12 |
| Active | 20 | – | – | O=C(NO)c1ccc[n+]([O-])c1 | > 1000 | >50 |
| – | – | – | Active | O=C(NO)c1ccc(Cl)cc1 | – | – |
| – | 240 | – | – | CN(O)C(=O)c1ccccn1 | > 1000 | >4 |
| – | 5 | – | – | COc1cccnc1C(=O)NO | 880 | 180 |

| Compound | HDAC6 inhibition (active/not active) [1] | EC50 [2] [µM] | inhibition [4] | inhibition [6] | CC50 at 72 h [3] [µM] | Ratio CC50/EC50 [5] |
| --- | --- | --- | --- | --- | --- | --- |
| O=C(NO)c1cccc[n+]1[O-] | inactive | 6 | – | – | 900 | 150 |
| O=C(NO)c1ccccn1 | inactive | 30 | – | – | 710 | 24 |
